In patent publication US20240269133A1, “METHODS OF TREATING INTERSTITIAL CYSTITIS/BLADDER PAIN SYNDROME” (Purdue Pharma L.P., priority 2021, published 2024):

How the values were obtained:
[1] = test system: CYP-induced visceral pain; experiment: Cyclophosphamide (CYP)-induced visceral pain model (acute cystitis), von Frey testing; type: in vivo, female Sprague-Dawley rats; conditions: for AUC 1-6 g (allodynia) / Nociceptive threshold: mean ± s.e.m.
[2] = Urine concentration after a single oral dose (methyl cellulose suspension); type: in vivo, humans; conditions: human
[3] = 30 mg/kg p.o., overall 2-24 h after CYP

SMILES: CC(C)Cc1ccc(C(C)C(=O)O)cc1 (centres unmarked) [Ibuprofen, reference compound]
- Effect on nociceptive scores vs vehicle ([1]; 300 mg/kg p.o., all along the observation period (2-24 h)): significantly decreased
- Effect on nociceptive threshold vs vehicle ([1]; 300 mg/kg p.o., overall 2-24 h after CYP): significant overall increase

SMILES: O=C(O)c1nc2ccccc2n([C@H]2C[C@H]3CCC[C@@H](C2)N3C2CC3CCCC(C3)C2)c1=O (some centres unmarked) [compound of formula (IA)]
- AUC 1-6 g (allodynia) ([1]; 30 mg/kg p.o., +2 h after CYP): 19.8±6.9 % scores × g
- Nociceptive threshold ([1]; 30 mg/kg p.o., +2 h after CYP): 6.6 ± 0.8 g
- AUC 1-6 g (allodynia) ([1]; 30 mg/kg p.o., +3 h after CYP): 19.3±6.3 % scores × g
- Nociceptive threshold ([1]; 30 mg/kg p.o., +3 h after CYP): 6.3 ± 1.2 g
- AUC 1-6 g (allodynia) ([1]; 30 mg/kg p.o., +4 h after CYP): 34.1±7.9 % scores × g
- Nociceptive threshold ([1]; 30 mg/kg p.o., +4 h after CYP): 4.8 ± 0.8 g
- AUC 1-6 g (allodynia) ([1]; 30 mg/kg p.o., +24 h after CYP): 61.8±15.7 % scores × g
- Nociceptive threshold ([1]; 30 mg/kg p.o., +24 h after CYP): 3.7 ± 0.8 g
- Effect on nociceptive threshold vs vehicle ([1]; 30 mg/kg p.o., CYP-injected rats, overall 2-24 h): overall inhibitory effect
- Effect on nociceptive scores vs vehicle ([1]; 30 mg/kg p.o., from 2 h up to 24 h after CYP): significant decrease
- Effect on AUC 1-6 g vs vehicle [1, 3]: overall decrease
- Effect on CYP-induced AUC 6-26 g increase (hyperalgesia) vs vehicle [1, 3]: significant overall inhibitory effect
- Urine concentration, mean ([2]; 0.2 mg single oral dose, 0 to 8 h): 2311 nM
- Urine concentration, mean ([2]; 0.2 mg single oral dose, 8 to 16 h): 394 nM
- Urine concentration, mean ([2]; 0.2 mg single oral dose, 16 to 24 h): BQL
- Urine concentration, mean ([2]; 0.2 mg single oral dose, 24 to 32 h): BQL
- Urine concentration, mean ([2]; 0.2 mg single oral dose, 32 to 40 h): BQL
- Urine concentration, mean ([2]; 0.2 mg single oral dose, 40 to 48 h): BQL
- Urine concentration, mean ([2]; 0.6 mg single oral dose, 0 to 8 h): 1641 nM
- Urine concentration, mean ([2]; 0.6 mg single oral dose, 8 to 16 h): 531 nM
- Urine concentration, mean ([2]; 0.6 mg single oral dose, 16 to 24 h): BQL
- Urine concentration, mean ([2]; 0.6 mg single oral dose, 24 to 32 h): BQL
- Urine concentration, mean ([2]; 0.6 mg single oral dose, 32 to 40 h): BQL
- Urine concentration, mean ([2]; 0.6 mg single oral dose, 40 to 48 h): BQL
- Urine concentration, mean ([2]; 2 mg single oral dose, 0 to 8 h): 10809 nM
- Urine concentration, mean ([2]; 2 mg single oral dose, 8 to 16 h): 1440 nM
- Urine concentration, mean ([2]; 2 mg single oral dose, 16 to 24 h): 400 nM
- Urine concentration, mean ([2]; 2 mg single oral dose, 24 to 32 h): BQL
- Urine concentration, mean ([2]; 2 mg single oral dose, 32 to 40 h): BQL
- Urine concentration, mean ([2]; 2 mg single oral dose, 40 to 48 h): BQL
- Urine concentration, mean ([2]; 10 mg single oral dose, 0 to 8 h): 30964 nM
- Urine concentration, mean ([2]; 10 mg single oral dose, 8 to 16 h): 14181 nM
- Urine concentration, mean ([2]; 10 mg single oral dose, 16 to 24 h): 1994 nM
- Urine concentration, mean ([2]; 10 mg single oral dose, 24 to 32 h): 535 nM
- Urine concentration, mean ([2]; 10 mg single oral dose, 32 to 40 h): 240 nM
- Urine concentration, mean ([2]; 10 mg single oral dose, 40 to 48 h): BQL
